Calls of active or inactive are those of the source. No cut-off for these calls is given here.
Assays:
A549 = assay: Antiproliferative activity against human A549 cells incubated for 72 hrs by MTT assay; format: functional, cell-based; conditions: A549, 72 h
K562/4 [1] = assay: Antiproliferative activity against human K562/4 cells incubated for 72 hrs by MTT assay; format: functional, cell-based; conditions: K562/4, 72 h
[2] = Resistance index, ratio of IC50 for human K562/4 cells to IC50 for human K562 cells; format: functional
[3] = Antiproliferative activity against hFB-hTERT6 cells incubated for 72 hrs by MTT assay; format: toxicity, cell-based; conditions: human
[4] = Drug uptake in P-gp+ human K562/4 cells at 2 uM incubated for 3 to 120 hrs by flow cytometry; format: ADME, cell-based; conditions: k562/4, 2 µM, time 3-120 hrs
[5] = Drug uptake in P-gp+ human K562i/S9 cells at 2 uM incubated for 3 to 120 hrs by flow cytometry; format: ADME, cell-based; conditions: k562i/s9, 2 µM, time 3-120 hrs
[6] = Drug uptake in human K562i/S9 cells assessed as fold increase at 2 uM incubated for 3 to 120 hrs by flow cytometry relative to LCTA-2640; format: ADME, cell-based; conditions: k562i/s9, 2 µM, time 3-120 hrs
[7] = Drug uptake in human HCT-116 cells at 3 uM incubated for 10 mins by confocal microscopy; format: ADME, cell-based; conditions: hct-116, 10 min
[8] = Drug uptake in cytoplasmic membrane of human HCT-116 cells at 3 uM incubated for 1 hr by confocal microscopy; format: ADME, cell membranes, Cytoplasm membrane; conditions: hct-116, 1 h
[9] = Drug uptake in lysosome of human HCT-116 cells at 3 uM incubated for 1 hr by LysoTracker Deep Red dye based confocal microscopy; format: ADME, subcellular; conditions: hct-116, 1 h
[10] = Drug uptake in mitochondria of human HCT-116 cells at 3 uM incubated for 1 hr by MitoTracker Red FM dye based confocal microscopy; format: ADME; conditions: hct-116, 1 h
K562 [11] = assay: Induction of apoptosis in human K562 cells assessed as viable cells at 1 uM incubated for 24 hrs by Annexin V-FITC/PI staining based flow cytometry (reference value: 85.9 %); format: functional; conditions: read-out: Activity
K562 [12] = assay: Induction of apoptosis in human K562 cells assessed as early apoptotic cells at 1 uM incubated for 24 hrs by Annexin V-FITC/PI staining based flow cytometry (reference value: 0.8 %); format: functional
K562 [13] = assay: Induction of apoptosis in human K562 cells assessed as necrotic cells at 1 uM incubated for 24 hrs by Annexin V-FITC/PI staining based flow cytometry (reference value: 10.8 %); format: functional
K562/4 [14] = assay: Induction of apoptosis in human K562/4 cells assessed as viable cells at 1 uM incubated for 24 hrs by Annexin V-FITC/PI staining based flow cytometry (reference value: 86 %); format: functional; conditions: read-out: Activity
K562/4 [15] = assay: Induction of apoptosis in human K562/4 cells assessed as early apoptotic cells at 1 uM incubated for 24 hrs by Annexin V-FITC/PI staining based flow cytometry (reference value: 1 %); format: functional
K562/4 [16] = assay: Induction of apoptosis in human K562/4 cells assessed as viable cells at 1 uM incubated for 24 hrs by Annexin V-FITC/PI staining based flow cytometry (reference value: 10.8 %); format: functional; conditions: read-out: Activity
K562 [17] = assay: Induction of apoptosis in human K562 cells assessed as viable cells at 1 uM incubated for 48 hrs by Annexin V-FITC/PI staining based flow cytometry (reference value: 85.9 %); format: functional; conditions: read-out: Activity
K562/4 [18] = assay: Induction of apoptosis in human K562/4 cells assessed as early apoptotic cells at 1 uM incubated for 48 hrs by Annexin V-FITC/PI staining based flow cytometry (reference value: 1 %); format: functional
K562 [19] = assay: Effect on cell cycle distribution in human K562 cells assessed as cells with fragmented DNA at sub-G1 phase at 0.75 uM incubated for 48 hrs by PI staining based flow cytometry (reference value: 3 %); format: functional
K562 [20] = assay: Effect on cell cycle distribution in human K562 cells assessed as cells with fragmented DNA at sub-G1 phase at 0.75 uM incubated for 72 hrs by PI staining based flow cytometry (reference value: 3 %); format: functional
K562 [21] = assay: Effect on cell cycle distribution in human K562 cells assessed as cells with fragmented DNA at sub-G1 phase at 1 uM incubated for 48 hrs by PI staining based flow cytometry (reference value: 3 %); format: functional
K562/4 [22] = assay: Effect on cell cycle distribution in human K562/4 cells assessed as cells with fragmented DNA at sub-G1 phase at 0.75 uM incubated for 24 hrs by PI staining based flow cytometry (reference value: 4 %); format: functional
K562/4 [23] = assay: Effect on cell cycle distribution in human K562/4 cells assessed as cells with fragmented DNA at sub-G1 phase at 0.75 uM incubated for 72 hrs by PI staining based flow cytometry (reference value: 4 %); format: functional
K562/4 [24] = assay: Effect on cell cycle distribution in human K562/4 cells assessed as cells with fragmented DNA at sub-G1 phase at 1 uM incubated for 48 hrs by PI staining based flow cytometry (reference value: 4 %); format: functional
K562/4 [25] = assay: Effect on cell cycle distribution in human K562/4 cells assessed as cells with fragmented DNA at sub-G1 phase at 1 uM incubated for 72 hrs by PI staining based flow cytometry (reference value: 4 %); format: functional
DNA = assay: Binding affinity to pBR322 plasmid DNA (unknown origin) assessed as effect on electrophoretic mobility of DNA at 1 to 40 uM incubated for 30 mins; format: nucleic-acid assay; conditions: Escherichia coli, dose 1-40 µM
[26] = molecular target: T1, DNA topoisomerase 1 (Homo sapiens) (UniProt P11387); assay: Inhibition of Top1 (unknown origin)-mediated unwinding of supercoiled DNA at 5 uM incubated for 30 mins by electrophoretic analysis
T1 sequence (whole entry): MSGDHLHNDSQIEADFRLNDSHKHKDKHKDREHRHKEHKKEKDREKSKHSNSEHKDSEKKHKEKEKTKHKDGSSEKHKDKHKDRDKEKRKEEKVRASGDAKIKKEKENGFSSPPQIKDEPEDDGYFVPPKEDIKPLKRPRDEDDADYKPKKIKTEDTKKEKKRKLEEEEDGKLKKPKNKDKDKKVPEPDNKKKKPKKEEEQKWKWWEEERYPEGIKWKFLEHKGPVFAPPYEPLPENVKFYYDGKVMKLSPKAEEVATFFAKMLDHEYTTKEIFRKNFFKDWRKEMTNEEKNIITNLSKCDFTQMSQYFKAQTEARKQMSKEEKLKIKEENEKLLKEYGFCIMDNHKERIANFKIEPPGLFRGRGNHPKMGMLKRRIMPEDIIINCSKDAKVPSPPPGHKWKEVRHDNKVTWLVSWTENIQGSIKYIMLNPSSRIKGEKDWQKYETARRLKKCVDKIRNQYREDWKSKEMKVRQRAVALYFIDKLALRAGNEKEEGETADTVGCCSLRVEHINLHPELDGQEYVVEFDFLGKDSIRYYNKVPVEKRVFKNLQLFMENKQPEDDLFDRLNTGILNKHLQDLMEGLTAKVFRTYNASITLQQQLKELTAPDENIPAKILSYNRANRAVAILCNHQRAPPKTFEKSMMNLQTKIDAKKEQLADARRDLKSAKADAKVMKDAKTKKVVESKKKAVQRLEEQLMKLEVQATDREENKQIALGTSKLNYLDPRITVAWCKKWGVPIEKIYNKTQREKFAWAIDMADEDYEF

CS(=O)(=O)O.N[C@H]1CCN(C(=O)c2cc3c(O)c4c(c(O)c3[nH]2)C(=O)c2ccccc2C4=O)C1
IC50 (A549): 7.7 µM
IC50 (K562/4 [1]): 1.2 µM
Ratio IC50 [2]: 2.4
IC50 at 72 h [3]: 4.2 µM
Drug uptake [4]: Active
Drug uptake [5]: Active
fold change (FC) [6]: <= 2
Drug uptake [7]: Active
Drug uptake [8]: Not_active
Drug uptake [9]: Active
Drug uptake [10]: Active
viability at 1 µM (K562 [11]): 29%
Activity (K562 [12]): 0.2%
Activity (K562 [13]): 46.2%
viability at 1 µM (K562/4 [14]): 30.1%
Activity (K562/4 [15]): 0.6%
viability at 1 µM (K562/4 [16]): 48.9%
viability at 1 µM (K562 [17]): 11.9%
Activity (K562/4 [18]): 0.1%
Activity (K562 [19]): 26%
Activity (K562 [20]): 30%
Activity (K562 [21]): 84%
Activity (K562/4 [22]): 8%
Activity (K562/4 [23]): 5%
Activity (K562/4 [24]): 54%
Activity (K562/4 [25]): 89%
Activity (DNA): inactive
inhibition [26]: Active
